Several values for one entry are separate records, joined by “and”; a condition that tells them apart may be missing. Equal values may be shown once.
Assays:
H358 = assay: MTT cytotoxicity assay, H358 NSCLC cells; format: cell-based, human; details: read-out: IC50 (µM) H358, 96-h incubation
H226 = assay: MTT cytotoxicity assay, H226 NSCLC cells; format: cell-based, human; details: read-out: IC50 (µM) H226, 96-h incubation
C57 BL/6 mice = assay: Maximum tolerable dose, i.p. injection; format: in vivo, mouse; details: dose level causing no deaths, chloride salt
[1] = cited from earlier work; for potential of tatpp-based reductive processes: vs. NHE at pH 7.0
[2] = Water solubility of the salts; details: chloride salts
[3] = system: supercoiled plasmid pUC18 DNA; details: cited from earlier work
mice = details: cited from earlier work
[4] = system: acetyl cholinesterase (AChE); details: in vitro and in vivo; cited from earlier work
HUVEC [5] = assay: Cytotoxicity towards normal HUVEC cells; format: cell-based, human
HUVEC [6] = assay: Apoptosis, caspase-cleavage and TUNEL, HUVEC; format: cell-based, human; details: 10 µM
[7] = system: pAKT, pEGFR, PI3K, pRb, CDK4, cyclinB1, bcl2, Bax in H358 cells; assay: Western blot of apoptotic, proliferative and tumor suppressor proteins; format: cell-based, human; details: H358, 10 µM, 24 h, Fig. 2D
NCI-60 panel = assay: NCI-60 cell line one-dose screen; format: cell-based; details: single dose 10 µM
HUVSMC [8] = assay: Cytotoxicity towards normal HUVSMC cells; format: cell-based, human; details: read-out: IC50 for normal HUVSMC cells
HUVSMC [9] = assay: Apoptosis, HUVSMC; format: cell-based, human; details: similar treatment
[10] = system: supercoiled plasmid pUC18 DNA; assay: DNA cleavage assay; format: biochemical
H358 cells = assay: Non-hypoxic/hypoxic cytotoxicity, cell count with Trypan blue; format: cell-based, human; details: hypoxic 1 % O2 relative to normoxic, 24 h, Fig. 2A
[11] = radiolabeled complex, in vivo; cited from earlier work

[Ru+2].c1cnc2c(c1)ccc1cccnc12.c1cnc2c(c1)ccc1cccnc12.c1cnc2c(c1)ccc1cccnc12 [Λ-1^2+, Λ-[Ru(phen)3]^2+]
IC50 (H358): 61.4 ± 4.7 µM
IC50 (H226): 116 ± 6.9 µM

mix-[(phen)2Ru(tatpp)Ru(phen)2]^4+ [4^4+]
IC50 (H358): 15.2 ± 1.8 µM
Maximum Tolerable Dose MTD (mg complex /kg mouse) (C57 BL/6 mice): 66 mg complex /kg mouse
Maximum Tolerable Dose MTD µmol complex /kg mouse (C57 BL/6 mice): 43 µmol complex /kg mouse
potential of tatpp-based reductive processes [1]: > −0.25 V
IC50 (H226): 16.2 ± 1.9 µM
water solubility [2]: water soluble
DNA cleavage activity upon in situ reduction by glutathione [3]: effective DNA cleaving agent

[Ru+2].c1cnc2c(c1)ccc1cccnc12.c1cnc2c(c1)ccc1cccnc12.c1cnc2c(c1)ccc1cccnc12 [1^2+, rac-[Ru(phen)3]^2+]
IC50 (H358): 90 µM and 86.7 µM
Maximum Tolerable Dose MTD (mg complex /kg mouse) (C57 BL/6 mice): 6.6 mg complex /kg mouse
Maximum Tolerable Dose MTD µmol complex /kg mouse (C57 BL/6 mice): 9.1 µmol complex /kg mouse
reduction potential required [1]: ≤ −0.70 V
minimum lethal dose (mice; iodo salt, mice, i.p. injection): 12 µmol/kg
toxicity when administered orally (mice; oral): non-toxic
inhibition of acetyl cholinesterase (AChE) [4]: competitive inhibitor
IC50 (H226): 90 µM and 92.8 µM
DNA cleavage activity upon in situ reduction by glutathione [3]: nor do they exhibit any DNA cleavage activity

ΛΛ-[(phen)2Ru(tatpp)Ru(phen)2]^4+ [ΛΛ-4^4+]
IC50 (H358): 16.7 ± 1 µM
Maximum Tolerable Dose MTD (mg complex /kg mouse) (C57 BL/6 mice): 66 mg complex /kg mouse
Maximum Tolerable Dose MTD µmol complex /kg mouse (C57 BL/6 mice): 43 µmol complex /kg mouse
IC50 (H226): 17.3 ± 1.5 µM

mix-[(phen)2Ru(tpphz)Ru(phen)2]^4+ [2^4+]
IC50 (H358): 41.8 ± 2.7 µM
Maximum Tolerable Dose MTD (mg complex /kg mouse) (C57 BL/6 mice): 3.3 mg complex /kg mouse
Maximum Tolerable Dose MTD µmol complex /kg mouse (C57 BL/6 mice): 2.5 µmol complex /kg mouse
reduction potential required [1]: ≤ −0.70 V
IC50 (H226): 51.1 ± 3.4 µM
water solubility [2]: water soluble
DNA cleavage activity upon in situ reduction by glutathione [3]: nor do they exhibit any DNA cleavage activity

ΔΛ-[(phen)2Ru(tatpp)Ru(phen)2]^4+ [ΔΛ-4^4+]
IC50 (H358): 15.3 ± 1.5 µM
Maximum Tolerable Dose MTD (mg complex /kg mouse) (C57 BL/6 mice): 66 mg complex /kg mouse
Maximum Tolerable Dose MTD µmol complex /kg mouse (C57 BL/6 mice): 43 µmol complex /kg mouse
IC50 (H226): 18.6 ± 1.5 µM

rac-[(phen)2Ru(tatpp)]^2+ [3^2+]
IC50 (H358): 13.2 ± 1.8 µM
Maximum Tolerable Dose MTD (mg complex /kg mouse) (C57 BL/6 mice): 67 mg complex /kg mouse
Maximum Tolerable Dose MTD µmol complex /kg mouse (C57 BL/6 mice): 65 µmol complex /kg mouse
potential of tatpp-based reductive processes [1]: > −0.25 V
IC50 (H226): 12.5 ± 1.9 µM
water solubility [2]: water soluble

ΔΔ-[(phen)2Ru(tatpp)Ru(phen)2]^4+ [ΔΔ-4^4+]
difference in cytotoxicity, malignant vs normal cells (HUVEC [5]; malignant cell lines vs HUVEC and HUVSMC): ~10 fold
IC50 (HUVEC [5]; read-out: IC50 for normal HUVEC cells): ~100 µM
IC50 (H358): 9.5 ± 1.2 µM
Maximum Tolerable Dose MTD (mg complex /kg mouse) (C57 BL/6 mice): 100 mg complex /kg mouse
Maximum Tolerable Dose MTD µmol complex /kg mouse (C57 BL/6 mice): 64 µmol complex /kg mouse
apoptosis in HUVEC (HUVEC [6]): did not show apoptosis
Bax level [7]: significantly increased
kinase signaling (pAKT, pEGFR, PI3K, pRb, CDK4, cyclinB1, bcl2) [7]: generalized decrease in kinase signaling
mean growth percentage, whole panel (NCI-60 panel): 80%
IC50 (HUVSMC [8]): ~100 µM
IC50 (H226): 9.3 ± 0.9 µM
apoptosis in HUVSMC (HUVSMC [9]): did not show apoptosis
DNA cleavage, dependence on GSH ([10]; presence or absence of GSH, Fig. 3A): only show DNA cleavage when GSH is present
DNA cleavage when O2 is absent ([10]; with GSH, anaerobic vs aerobic): appreciably enhanced

Λ-[(phen)2Ru(tatpp)]^2+ [Λ-3^2+]
IC50 (H358): 13.8 ± 1.5 µM
IC50 (H226): 13 ± 2 µM

cis-Pt(NH3)2Cl2 [cisplatin, reference compound]
potentiation of cytotoxicity under hypoxic conditions (H358 cells): neither of which showed significant potentiation
LD50 (mice; murine acute toxicity): ~ 57 µmol/kg

[Ru(phen)2(dppz)]^2+
potentiation of cytotoxicity under hypoxic conditions (H358 cells): neither of which showed significant potentiation

[Ru+2].c1ccc(-c2ccccn2)nc1.c1ccc(-c2ccccn2)nc1.c1ccc(-c2ccccn2)nc1 [rac-[Ru(bpy)3]^2+, reference compound]
IC50 (H358): 209 ± 16 µM
IC50 (H226): 198 ± 15 µM

[Ru+2].c1cnc2c(c1)ccc1cccnc12.c1cnc2c(c1)ccc1cccnc12.c1cnc2c(c1)ccc1cccnc12 [Δ-1^2+, Δ-[Ru(phen)3]^2+]
IC50 (H358): 64.8 ± 4.2 µM
IC50 (H226): 93.6 ± 6.3 µM

[106Ru+2].c1cnc2c(c1)ccc1cccnc12.c1cnc2c(c1)ccc1cccnc12.c1cnc2c(c1)ccc1cccnc12 [[^106Ru(phen)3]^2+]
recovery in the urine [11]: nearly all the complex was recovered in the urine

Source: paper PMC3856889 (Molecular cancer therapeutics, 2013)
